Data taken from US10519134B2, “Pyrazole compounds and methods of making and using same” (Lundbeck La Jolla Research Center, Inc., priority 2015, dated 2019).

Experiments:
MAGL = molecular target: T1, MAGL (Mus musculus, UniProt O35678); experiment: In vitro competitive activity-based protein profiling (mouse), MAGL gel band; type: biochemical; details: for IC50: mouse; for inhibition at 1 µM: read-out: MAGL % inh. 1 μM
T1 construct: Proteomes (mouse brain membrane fraction or cell lysates); from tissue; host or cells: mouse brain membrane fraction (or cell lysates)
T1 sequence (O35678 1-303): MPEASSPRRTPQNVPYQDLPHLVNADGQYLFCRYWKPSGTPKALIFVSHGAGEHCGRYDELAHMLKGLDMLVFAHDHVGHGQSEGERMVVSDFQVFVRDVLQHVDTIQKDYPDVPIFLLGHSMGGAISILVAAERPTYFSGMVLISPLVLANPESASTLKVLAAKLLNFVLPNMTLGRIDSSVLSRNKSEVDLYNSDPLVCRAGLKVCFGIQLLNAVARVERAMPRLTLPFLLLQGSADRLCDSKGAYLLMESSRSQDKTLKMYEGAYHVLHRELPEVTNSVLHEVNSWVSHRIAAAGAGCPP
Procedure: (§1) In Vitro Competitive Activity-Based Protein Profiling (Mouse).
(§2) Proteomes (mouse brain membrane fraction or cell lysates) (50 μL, 1.0 mg/mL total protein concentration) were preincubated with varying concentrations of inhibitors at 37° C. After 30 min, FP-Rh or HT-01 (1.0 μL, 50 μM in DMSO) was added and the mixture was incubated for another 30 min at 37° C. Reactions were quenched with SDS loading buffer (15 μL—4×) and run on SDS-PAGE. Following gel imaging, serine hydrolase activity was determined by measuring fluorescent intensity of gel bands corresponding to MAGL, ABHD6, and FAAH, using ImageJ 1.43u software.

FAAH = molecular target: T2, FAAH (Mus musculus, UniProt O08914); experiment: In vitro competitive activity-based protein profiling (mouse), FAAH gel band; type: biochemical; details: for IC50: mouse; for inhibition at 1 µM: read-out: FAAH % inh. 1 μM
T2 construct: Proteomes (mouse brain membrane fraction or cell lysates); from tissue; host or cells: mouse brain membrane fraction (or cell lysates)
T2 sequence (O08914 1-579): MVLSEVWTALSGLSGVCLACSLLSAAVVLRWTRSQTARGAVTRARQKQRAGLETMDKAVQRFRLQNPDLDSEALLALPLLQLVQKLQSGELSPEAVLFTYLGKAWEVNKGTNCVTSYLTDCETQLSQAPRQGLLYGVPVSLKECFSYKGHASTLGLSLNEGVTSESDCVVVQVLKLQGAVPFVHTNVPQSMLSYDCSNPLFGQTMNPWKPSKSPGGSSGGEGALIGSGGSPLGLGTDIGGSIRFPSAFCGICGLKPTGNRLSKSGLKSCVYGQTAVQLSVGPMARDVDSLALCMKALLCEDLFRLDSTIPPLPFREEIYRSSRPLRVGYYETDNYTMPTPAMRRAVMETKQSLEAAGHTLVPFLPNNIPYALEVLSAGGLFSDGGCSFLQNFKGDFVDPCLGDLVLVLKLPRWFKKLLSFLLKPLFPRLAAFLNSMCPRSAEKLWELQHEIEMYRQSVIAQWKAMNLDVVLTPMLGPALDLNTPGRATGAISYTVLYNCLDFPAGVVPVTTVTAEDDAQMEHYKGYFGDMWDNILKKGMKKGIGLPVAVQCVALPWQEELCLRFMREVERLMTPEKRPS
Procedure: as §1, §2

SMILES	IC50 (MAGL) [µM]	inhibition at 1 µM (MAGL) [%]	IC50 (FAAH) [µM]	inhibition at 1 µM (FAAH) [%]
CC(=O)Nc1ccn(C(=O)N2CCN(Cc3ccc(Cl)cc3N3CCC(F)(F)CC3)CC2)n1 [Example 57, N-(1-(4-(4-chloro-2-(4,4-difluoropiperidin-1-yl)benzyl)piperazine-1-carbonyl)-1H-pyrazol-3-yl)acetamide]	≤ 0.1	≥ 75	1 to 10	0 to 25
CCN1CCN(c2cc(Cl)ccc2CN2CCN(C(=O)n3ccc(NC(C)=O)n3)CC2)CC1 [Example 59, N-(1-(4-(4-chloro-2-(4-ethylpiperazin-1-yl)benzyl)piperazine-1-carbonyl)-1H-pyrazol-3-yl)acetamide]	0.1 to 1	≥ 75	1 to 10	0 to 25
CC(=O)Nc1ccn(C(=O)N2CCC3(CCCN3Cc3cc(Cl)cc(N4C5CCC4COC5)c3)CC2)n1 [Example 64, N-(1-(1-(3-(3-oxa-8-azabicyclo[3.2.1]octan-8-yl)-5-chlorobenzyl)-1,8-diazaspiro[4.5]decane-8-carbonyl)-1H-pyrazol-3-yl)acetamide]	≤ 0.1	≥ 75	1 to 10	0 to 25
CC(=O)Nc1ccn(C(=O)N2CCC3(CCCN3Cc3cc(Cl)cc(N4CC5CN(C(C)=O)CC5C4)c3)CC2)n1 (stereo not shown) [Example 65, N-(1-(1-(3-(5-acetylhexahydropyrrolo[3,4-c]pyrrol-2(1H)-yl)-5-chlorobenzyl)-1,8-diazaspiro[4.5]decane-8-carbonyl)-1H-pyrazol-3-yl)acetamide]		≥ 75		25 to 50
CC(=O)N(C)c1ccn(C(=O)N2CCC3(CCCN3Cc3cc(N4CCCC4)cc(C(F)(F)F)c3)CC2)n1 [Example 66, N-methyl-N-(1-(1-(3-(pyrrolidin-1-yl)-5-(trifluoromethyl)benzyl)-1,8-diazaspiro[4.5]decane-8-carbonyl)-1H-pyrazol-3-yl)acetamide]		50 to 75		0 to 25
CC(=O)N(C)c1ccn(C(=O)N2CCC3(CCCN3Cc3cc(N4C5CCC4COC5)cc(C(F)(F)F)c3)CC2)n1 [Example 67, N-(1-(1-(3-(3-oxa-8-azabicyclo[3.2.1]octan-8-yl)-5-(trifluoromethyl)benzyl)-1,8-diazaspiro[4.5]decane-8-carbonyl)-1H-pyrazol-3-yl)-N-methylacetamide]		0 to 25		0 to 25
CC(=O)N(C)c1ccn(C(=O)N2CCC3(CCCN3Cc3ccc(C(F)(F)F)cc3N3CCCC3)CC2)n1 [Example 68, N-methyl-N-(1-(1-(2-(pyrrolidin-1-yl)-4-(trifluoromethyl)benzyl)-1,8-diazaspiro[4.5]decane-8-carbonyl)-1H-pyrazol-3-yl)acetamide]		50 to 75		0 to 25
CC(=O)N(C)c1ccn(C(=O)N2CCN(Cc3cc(N4CCCC4)cc(C(F)(F)F)c3)CC2)n1 [Example 70, N-methyl-N-(1-(4-(3-(pyrrolidin-1-yl)-5-(trifluoromethyl)benzyl)piperazine-1-carbonyl)-1H-pyrazol-3-yl)acetamide]	0.1 to 1	≥ 75	1 to 10	0 to 25
CC(=O)Nc1ccn(C(=O)N2CCN(Cc3ccc(C(F)(F)F)cc3Oc3nc4ccccc4s3)CC2)n1 [Example 75, N-(1-(4-(2-(benzo[d]thiazol-2-yloxy)-4-(trifluoromethyl)benzyl)piperazine-1-carbonyl)-1H-pyrazol-3-yl)acetamide]	≤ 0.1	≥ 75	1 to 10	0 to 25
CC(=O)Nc1ccn(C(=O)N2CCN(Cc3cc(Oc4nc5ccccc5s4)cc(C(F)(F)F)c3)CC2)n1 [Example 76, N-(1-(4-(3-(benzo[d]thiazol-2-yloxy)-5-(trifluoromethyl)benzyl)piperazine-1-carbonyl)-1H-pyrazol-3-yl)acetamide]	≤ 0.1	≥ 75	0.1 to 1	≥ 75
CC(=O)Nc1ccn(C(=O)N2CCN(Cc3ccc(C(F)(F)F)cc3OC3CCS(=O)(=O)CC3)CC2)n1 [Example 77, N-(1-(4-(2-((1,1-dioxidotetrahydro-2H-thiopyran-4-yl)oxy)-4-(trifluoromethyl)benzyl)piperazine-1-carbonyl)-1H-pyrazol-3-yl)acetamide]		≥ 75		0 to 25
CC(=O)Nc1ccn(C(=O)N2CCC3(CCCN3Cc3cc(Oc4nc5ccccc5s4)cc(C(F)(F)F)c3)CC2)n1 [Example 86, N-(1-(1-(3-(benzo[d]thiazol-2-yloxy)-5-(trifluoromethyl)benzyl)-1,8-diazaspiro[4.5]decane-8-carbonyl)-1H-pyrazol-3-yl)acetamide]		≥ 75		50 to 75

Other lines, results leading:

IC50 (MAGL) [µM]	inhibition at 1 µM (MAGL) [%]	IC50 (FAAH) [µM]	inhibition at 1 µM (FAAH) [%]	SMILES
0.1 to 1	≥ 75	1 to 10	25 to 50	CC(=O)Nc1ccn(C(=O)N2CCC3(CCCN3Cc3ccc(C(F)(F)F)cc3OC3CCS(=O)(=O)CC3)CC2)n1 [Example 87, N-(1-(1-(2-((1,1-dioxidotetrahydro-2H-thiopyran-4-yl)oxy)-4-(trifluoromethyl)benzyl)-1,8-diazaspiro[4.5]decane-8-carbonyl)-1H-pyrazol-3-yl)acetamide]
	≥ 75		0 to 25	CC(=O)Nc1ccn(C(=O)N2CCC3(CCCN3Cc3ccc(C(F)(F)F)cc3OCC(=O)N3CCCC3)CC2)n1 [Example 89, N-(1-(1-(2-(2-oxo-2-(pyrrolidin-1-yl)ethoxy)-4-(trifluoromethyl)benzyl)-1,8-diazaspiro[4.5]decane-8-carbonyl)-1H-pyrazol-3-yl)acetamide]
	≥ 75		0 to 25	O=C(CO)Nc1ccn(C(=O)N2CCN(Cc3ccc(Cl)cc3)CC2)n1 [Example 91, N-(1-(4-(4-chlorobenzyl)piperazine-1-carbonyl)-1H-pyrazol-3-yl)-2-hydroxyacetamide]
	≥ 75		≥ 75	O=C(CO)Nc1ccn(C(=O)N2CCN(Cc3cccc(Oc4ccccc4)c3)CC2)n1 [Example 92, 2-hydroxy-N-(1-(4-(3-phenoxybenzyl)piperazine-1-carbonyl)-1H-pyrazol-3-yl)acetamide]
0.1 to 1	≥ 75	1 to 10	0 to 25	CC(=O)Nc1ccn(C(=O)N2CCC3(CCCN3Cc3ccc4c(c3)COC4)CC2)n1 [Example 97, N-(1-(1-((1,3-dihydroisobenzofuran-5-yl)methyl)-1,8-diazaspiro[4.5]decane-8-carbonyl)-1H-pyrazol-3-yl)acetamide]
0.1 to 1	≥ 75	1 to 10	0 to 25	CC(=O)Nc1ccn(C(=O)N2CCC3(CCCN3Cc3ccc4c(c3)OCCO4)CC2)n1 [Example 98, N-(1-(1-((2,3-dihydrobenzo[b][1,4]dioxin-6-yl)methyl)-1,8-diazaspiro[4.5]decane-8-carbonyl)-1H-pyrazol-3-yl)acetamide]
0.1 to 1	≥ 75	1 to 10	0 to 25	CC(=O)Nc1ccn(C(=O)N2CCC3(CCCN3Cc3ccc(N4CCOCC4)c(Cl)c3)CC2)n1 [Example 99, N-(1-(1-(3-chloro-4-morpholinobenzyl)-1,8-diazaspiro[4.5]decane-8-carbonyl)-1H-pyrazol-3-yl)acetamide]
